The data set is described as follows: Pharmacokinetics of noribogaine in healthy volunteers, ascending single oral dose (plasma noribogaine and noribogaine glucuronide). The following applies: for AUC0-216 / AUC0-∞ / Cmax / Tmax / t1/2: healthy male volunteers, n = 6, mean (SD).
[1] abbreviates: glucuronide in plasma after single oral 30 mg noribogaine dose.
[2] abbreviates: glucuronide in plasma after single oral 60 mg noribogaine dose.
The mark [3] stands for this setting: plasma noribogaine glucuronide, 30 mg and 60 mg dose groups.

Molecules are shown by their SMILES.

We go through one compound from patent publication US20150258106A1, “METHODS FOR ACUTE AND LONG-TERM TREATMENT OF SUBSTANCE ABUSE” (DEMERX, INC., priority 2014, published 2015).

On to `CC[C@H]1C[C@@H]2C[C@H]3c4[nH]c5ccc(OC6OC(C(=O)O)C(O)C(O)C6O)cc5c4CCN(C2)[C@@H]13` (some centres unmarked) [Noribogaine glucuronide, noribogaine glucuronide], for which, under “both dose groups (30 mg, 60 mg)”, the “proportion of noribogaine glucuronide Cmax and AUC relative to noribogaine” value is listed as 3-4%. Under setting [1], the AUC0-216 is recorded as 25.7 (9.1) ng · hr/ml, the “AUC0-∞” value is 25.8 (9.3) ng · hr/ml, the Cmax is reported as 1.8 (0.6) ng/ml and the Tmax is reported as 3.0 (0.6) hr. Also, the t1/2 under setting [1] is 20.6 (4.9) hr. Moreover, under setting [2], the AUC0-216 was 65.0 (21.5) ng · hr/ml, the “AUC0-∞” value is recorded as 67.1 (21.9) ng · hr/ml, the Cmax is on record as 4.1 (1.2) ng/ml and the Tmax is reported as 3.8 (1.2) hr. For the same compound, the t1/2 under setting [2] is 23.1 (3.0) hr. For the same compound, under setting [3], the Mean half-life lay in the range of 21 to 23 h and the “time of peak concentrations after noribogaine dosing” value lay in the range of 3 to 4 h. Moreover, the “time by which noribogaine glucuronide was detected in all subjects” value (plasma, after 30 mg or 60 mg noribogaine dose) is no more than 0.75 h.
